These results are taken from US20140357662A1, “THIENO (2,3 - C) PYRAZOLES FOR USE AS POTASSIUM CHANNEL INHIBITORS” (XENTION LIMITED, priority 2011, published 2014).

Structures are written as SMILES. Bounds are passed on as bounds.

In general, IC50 refers to the concentration that gives 50% inhibition. The low end stands for greater potency in that assay, the high end for weaker potency in that assay.

The target of the experiment is T1, rat Kir3.1/3.4 (Rattus norvegicus, UniProt P48548+P63251).
T1 construct: expressed in transfected cells; host or cells: HEK293 (Human Embryonic Kidney 293), stably transfected
T1 sequence (P63251 1-501): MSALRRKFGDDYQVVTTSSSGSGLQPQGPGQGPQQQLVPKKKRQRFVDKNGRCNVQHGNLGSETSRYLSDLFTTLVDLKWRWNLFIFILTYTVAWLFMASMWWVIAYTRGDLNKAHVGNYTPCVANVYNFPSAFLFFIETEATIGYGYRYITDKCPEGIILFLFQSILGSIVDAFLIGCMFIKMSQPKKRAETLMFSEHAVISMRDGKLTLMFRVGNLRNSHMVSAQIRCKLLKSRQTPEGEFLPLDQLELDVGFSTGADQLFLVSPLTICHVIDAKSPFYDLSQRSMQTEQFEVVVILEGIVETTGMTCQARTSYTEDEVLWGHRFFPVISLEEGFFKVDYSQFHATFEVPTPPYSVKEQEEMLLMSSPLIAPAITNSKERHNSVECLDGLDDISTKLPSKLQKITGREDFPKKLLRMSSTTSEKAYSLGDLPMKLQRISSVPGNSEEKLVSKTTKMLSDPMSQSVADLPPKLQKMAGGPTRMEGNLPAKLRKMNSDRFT
T1 sequence (P48548 1-419): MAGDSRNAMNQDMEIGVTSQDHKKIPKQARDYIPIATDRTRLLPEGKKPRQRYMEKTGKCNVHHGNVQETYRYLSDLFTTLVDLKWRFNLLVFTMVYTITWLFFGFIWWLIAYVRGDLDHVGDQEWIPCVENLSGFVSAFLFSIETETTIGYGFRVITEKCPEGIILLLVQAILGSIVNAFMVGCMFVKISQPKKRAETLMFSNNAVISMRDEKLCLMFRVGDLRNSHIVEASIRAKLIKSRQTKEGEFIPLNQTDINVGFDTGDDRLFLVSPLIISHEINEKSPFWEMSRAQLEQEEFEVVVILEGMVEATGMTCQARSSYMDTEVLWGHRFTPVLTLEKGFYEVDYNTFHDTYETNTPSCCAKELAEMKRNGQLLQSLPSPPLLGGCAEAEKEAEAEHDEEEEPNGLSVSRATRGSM
The experiment is described as follows: Kir3.1/3.4 Electrophysiology Method (manual whole-cell patch clamp). In kind it is cell-based. As to conditions: Human Embryonic Kidney 293 stably transfected with rat Kir3.1/3.4; inhibition of leak-subtracted current at -140 mV. Here is the method: Compound activity against the recombinant G-protein activated inward rectifier current encoded by the heterotetramer Kir3.1/3.4 was assessed using manual whole-cell patch technique. The heterotetramer forms the pore-forming channel that conducts the acetylcholine/adenosine-activated potassium current in the heart.
For whole-cell patch-clamp studies, cells (Human Embryonic Kidney 293 stably transfected with rat Kir3.1/3.4) were seeded onto glass coverslips before recordings were made. Cells were seeded in sterile 30 mm Petri dishes at a density to enable isolated cells to be selected for patch clamp experiments. The dishes were stored in a humidified, gassed (5% CO2) incubator at 37° C. until use.
Whole-cell patch-clamp recordings of membrane currents were made following gigaohm seal formation between the patch electrode and the cell using HEKA EPC-9/10 amplifiers controlled by Pulse Software (Ver8.5x/8.6x/8.7x, HEKA, Germany). Coverslips seeded with cells were placed in a recording chamber mounted on the stage of an inverted microscope. During the experiment, the cell of interest was continuously superfused with bather solution delivered via a cannula placed in close proximity to the cell to enable control of the extracellular solution environment. Only those cells with a current <−500 pA (current at −140 mV) were used for experiments. During experiments, series resistance was compensated by a minimum of 70%.
Electrophysiology voltage-step protocols and analysis of data were performed as follows. Data was sampled at 5 kHz, and filtered with a −3 dB bandwidth of 2.5 kHz. Cells were held at a voltage of −60 mV. Currents were evoked by a depolarising voltage step to +60 mV (100 ms) before a ramp-repolarisation (0.4 V·s^−1) to −140 mV (100 ms) before returning to −60 mV. The command waveform was repeatedly applied every 10 s throughout the experiment. Mean currents during 1-99% of the time at −140 mV were analysed using Pulsefit software (v8.x, HEKA, Germany). The voltage protocol was repeatedly applied to achieve a stable current baseline in bather before the test substance was superfused via the cannula in close proximity to the cell under investigation. The test substance was allowed to equilibrate during which time voltage protocol was repeatedly applied and recorded. On reaching steady-state inhibition, the cell was superfused with an identical bather solution containing zero external potassium chloride (replaced by equimolar NaCl). The identical current measurement was made in the absence of potassium to assess the passive leak at −140 mV. The leak current was subtracted from the control and steady-state drug current values. The percentage inhibition of the leak-subtracted current in the presence of test substance was calculated relative to the control leak-subtracted pre-drug value. Internal patch-pipette solution contained in mM: 110 KCl, 20 NaCl, 0.9 GTPγS, 5 Mg-ATP, 5 EGTA, 10 HEPES, pH7.2 corrected with KOH. The external superfusate composition in mM was: 150 (or 160) NaCl, 10 (or 0) KCl, 3 CaCl2, 1 MgCl, 10 HEPES, pH 7.4 corrected with NaOH.
On the technique in general: In patch-clamp work, channel activity is measured electrically.

`CC(C)NC(=O)c1sc2[nH]nc(N3CCC(COCCN4CCCC4)CC3)c2c1-c1ccccc1` [Compound 24, N-isopropyl-4-phenyl-3-[4-(2-pyrrolidin-1-ylethoxymethyl)-1-piperidyl]-1H-thieno[2,3-c]pyrazole-5-carboxamide]: the IC50 was less than 500 nM. Then `CNC(=O)c1sc2[nH]nc(N3CCC(COCCN4CCCC4)CC3)c2c1-c1ccccc1` [Compound 25, N-methyl-4-phenyl-3-[4-(2-pyrrolidin-1-ylethoxymethyl)-1-piperidyl]-1H-thieno[2,3-c]pyrazole-5-carboxamide], with less than 500 nM.
